Data set [1] relates to cannabinoid receptors / TRPV1 receptors. The settings on record: cited from earlier work.
Another data set deals with patients with PNP. The settings on record: cited from earlier work.
In data set [2] the test system is healthy female subjects. Put plainly: Laser evoked potentials. The data set is classed as in vivo, human. The settings on record: for Dose at which the maximum postdose response was attained: LEP N2-P2 PtP, once daily multiple dosing; for Time to maximum response (percentage change in LEP N2-P2 PtP amplitudes): after dosing.
Data set [3] deals with healthy female subjects. Put plainly: VAS pain. The following applies: all subjects. The data set is classed as in vivo, human.
The test system of the next data set is rats. The following applies: ref unpublished data; cited from earlier work.
A short description of data set [4]: Plasma pharmacokinetics after multiple ascending once daily doses. Type of data set: in vivo, human.
In data set [5] the test system is healthy female subjects. Put plainly: Safety and tolerability. Type of data set: in vivo, human.

These results are taken from PMC5998989 (Pain Medicine: The Official Journal of the American Academy …, 2017).

Molecules are shown by their SMILES. Where “and” joins values, the source holds several entries; their conditions need not be identical. Identical values can stand only once.

With `CCCCC/C=C\C/C=C\C/C=C\C/C=C\CCCC(=O)NCCO` [AEA, N-arachidonoyl-ethanolamine], in data set [1], the “Potency toward cannabinoid receptors relative to that toward TRPV1 receptors” value is recorded as “about 10 times”.
For `O=C(Nc1ccccc1)C1CCN(C(=O)Oc2cccnc2)CC1` [ASP8477], the “Difference between ASP8477 and placebo” value in the data set with patients with PNP (double-blind randomized withdrawal period) was “no difference”. Moreover, the “Patients reporting a reduction of ≥30% in their pain” value with patients with PNP (single-blind period, 30 mg BID) is given as around 60%. For the same compound, in the data set on healthy female subjects [2] (100 mg day 21 vs placebo day 21, all subjects, session as a random effect), the “Mean Difference (95% CI) vs placebo, LEP N2-P2 PtP amplitude, secondary analysis” value is −1.58 (−3.30 to 0.15) µV. For the same compound, the “Mean Difference (95% CI) vs placebo, LEP N2-P2 PtP amplitude, primary analysis” value in the data set with healthy female subjects [2] (100 mg day 21 vs placebo day 21, all subjects, session as replications) was −1.58 (−3.30 to 0.14) µV. In the data set with healthy female subjects [2] (100 mg, day 21, all subjects, linear mixed regression model with session as a random effect), the “LS mean PtP (SE), LEP N2-P2 PtP amplitude, secondary analysis” value was 29.66 (2.80) µV. Also, the “LS mean PtP (SE), LEP N2-P2 PtP amplitude, primary analysis” value with healthy female subjects [2] (100 mg, day 21, all subjects, linear mixed regression model with session as replications) was 28.31 (2.75) µV. Further, in the data set with healthy female subjects [2], the “Dose at which the maximum postdose response was attained” value is on record as 20 mg and the “Time to maximum response (percentage change in LEP N2-P2 PtP amplitudes)” value is listed as “approximately one to four”. Moreover, in the data set on healthy female subjects [2] (all subjects), the “Day 14 predose response for LEP N2-P2 PtP amplitudes, % of the maximum response” value was 4% and 8%; the “Day 21 predose response for LEP N2-P2 PtP amplitudes, % of the maximum response” value is on record as 19%; the “LEP N2-P2 PtP cumulative magnitude of response (AUC)” value (shortened to “LEP N2-P2 PtP cumulative magnitude”) is on record as “approximately 200”. Moreover, in the data set with healthy female subjects [2] (all subjects, across all doses), the “LEP N2-P2 PtP amplitudes, overall mean” value was 28.51 µV and the “Mean difference vs placebo in LEP N2-P2 PtP amplitudes” value was “–1.41 µV”. In addition, the “Day 21 predose effect for LEP N2-P2 PtP amplitudes, % of the maximum achievable effect” value in the data set on healthy female subjects [2] (capsaicin-positive subgroup) was 40%. In addition, the “LEP N2-P2 PtP cumulative magnitude” value with healthy female subjects [2] (capsaicin-positive subgroup, day 7) was “approximately 400”. Moreover, in the data set with healthy female subjects [2] (capsaicin-positive subgroup, day 14), the “LEP N2-P2 PtP cumulative magnitude” value was around 420. Also, in the data set with healthy female subjects [2] (capsaicin-positive subgroup, day 21), the “LEP N2-P2 PtP cumulative magnitude” value is reported as around 470. In the data set with healthy female subjects [3], the “Day 14 predose response for VAS pain scores, % of the maximum response” value worked out at 23% and the “Day 21 predose response for VAS pain scores, % of the maximum response” value came out at 4%. Besides, the “Mean difference vs placebo in VAS pain score” value with healthy female subjects [3] (all doses) was “–2.55%”. For the same compound, the “Mean VAS pain score” value with healthy female subjects [3] (all three doses (overall)) is 42.23%. In the data set with rats, the “Effects in nonclinical toxicity studies” value was “effects observed on male fertility”. The “Dose proportionality of PK parameters” value in data set [4] (between 20 mg and 100 mg, multiple ascending doses) is given as “more than dose-proportional”. In data set [4] (oral dosing), the “Absorption following oral dosing” value was “rapidly absorbed”. Also, in data set [4] (oral dosing, all doses), the “Median tmax (range)” value was in the range of 2.1 to 4.1 h. The Tolerability entry in the data set with healthy female subjects [5] (ascending doses of 20 mg, 60 mg, and 100 mg once daily) is given as “well tolerated”. In the data set with healthy female subjects [5] (during treatment, all doses), the “Subjects reporting a treatment-emergent adverse event (TEAE)” value came to 83%; the “TEAE disorientation, subjects” value came to 8%; the “TEAE disturbance in attention and illusion, subjects” value worked out at 13%; the “TEAE dry mouth, subjects” value came to 21%. Also, in the data set on healthy female subjects [5] (during treatment, all doses), the “TEAE fatigue, subjects” value came out at 29%; the “TEAE headache, subjects” value is 29%; the “TEAE memory impairment, subjects” value came out at 13%; the “TEAE vertigo, subjects” value is 29%.
Regarding `CNCC[C@H](Oc1cccc2ccccc12)c1cccs1` [duloxetine, reference compound], in the data set on healthy female subjects [2], the “Dose at which the maximum postdose response was attained” value is given as 30 mg and the “Time to maximum response (percentage change in LEP N2-P2 PtP amplitudes)” value is on record as “approximately one to four”. Further, in the data set with healthy female subjects [2] (all subjects), the “Day 14 predose response for LEP N2-P2 PtP amplitudes, % of the maximum response” value amounted to 26% and the “Day 21 predose response for LEP N2-P2 PtP amplitudes, % of the maximum response” value stood at 44%. Also, in the data set on healthy female subjects [2] (all subjects, across all doses), the “LEP N2-P2 PtP amplitudes, overall mean” value turned out to be 24.71 µV; the “Mean difference duloxetine vs ASP8477 in LEP N2-P2 PtP amplitudes” value is given as “–3.80 µV”; the “Mean difference vs placebo in LEP N2-P2 PtP amplitudes” value was “–5.21 µV”. Besides, in the data set on healthy female subjects [2] (capsaicin-positive subgroup), the “Day 14 predose effect for LEP N2-P2 PtP amplitudes, % of the maximum achievable effect” value was determined as 40% and the “Day 21 predose effect for LEP N2-P2 PtP amplitudes, % of the maximum achievable effect” value is “around 40%”. Moreover, the “Time to maximum effect” value in the data set with healthy female subjects [2] (postdose) was “five”. Moreover, in the data set on healthy female subjects [3], the “Day 14 predose response for VAS pain scores, % of the maximum response” value is 17% and the “Day 21 predose response for VAS pain scores, % of the maximum response” value was found to be 10%. For the same compound, the “PK parameters of 60 mg compared with 30 mg” value in data set [4] (once daily for seven days) was “approximately doubled”. In the data set with healthy female subjects [5] (during treatment, all doses), the “TEAE fatigue, subjects” value was 29% and the “TEAE nausea, subjects” value is on record as 29%.
